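Each compound was tested at five concentrations against cells in 96-well plates for 48 hours. GI50: concentration for 50% inhibition of growth.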 Activity calls are given as the source filed them. Cut-off read from the data, not from the text of the source: active = GI50 up to about 1.1 µM and inactive = higher. Where a SMILES comes first, the peptide text is derived from it. [ ]: non-standard residue; d: D form. The star is where a group is joined. NMeF = CN[C@@H](Cc1ccccc1)C(=O)O; NMeV = CN[C@H](C(=O)O)C(C)C; Boc = CC(C)(C)OC(=O)*; OBn = c1ccc(CO*)cc1
Columns and labels:
Assay in all cases: DTP human tumour cell line panel, 48 h
MCF7 = system: MCF7
A498 = system: A498
SW-620 = system: SW-620
HCC 2998 = system: HCC 2998
OVCAR-3 = system: OVCAR-3
SF-539 = system: SF-539
DU-145 = system: DU-145
MDA-MB-231 = system: MDA-MB-231
MDA-MB-435 = system: MDA-MB-435
MDA-N = system: MDA-N
ACHN = system: ACHN
OVCAR-5 = system: OVCAR-5
SK-OV-3 = system: SK-OV-3
CAKI-1 = system: CAKI-1
SK-MEL-5 = system: SK-MEL-5
A549 = system: A549
CCRF-CEM = system: CCRF-CEM
HCT-116 = system: HCT-116
RXF 393 = system: RXF 393
SR = system: SR

Row | SMILES | GI50 (MCF7) | GI50 (A498) | GI50 (SW-620) | GI50 (HCC 2998) | GI50 (OVCAR-3) | GI50 (SF-539) | GI50 (DU-145) | GI50 (MDA-MB-231) | GI50 (MDA-MB-435) | GI50 (MDA-N) | GI50 (ACHN) | GI50 (OVCAR-5) | GI50 (SK-OV-3) | GI50 (CAKI-1) | GI50 (SK-MEL-5) | GI50 (A549) | GI50 (CCRF-CEM) | GI50 (HCT-116) | GI50 (RXF 393) | GI50 (SR)
1 | CCOC(=O)N1CCC2(CC1)C[C@@](C(C)=O)(c1ccccc1)C(C)O2 (stereo partly specified) | > 100 µM (inactive) | > 100 µM (inactive) | > 100 µM (inactive) | > 100 µM (inactive) | > 100 µM (inactive) | > 100 µM (inactive) | > 100 µM (inactive) | > 100 µM (inactive) | > 100 µM (inactive) | 85.1 µM (inactive) | > 100 µM (inactive) | > 100 µM (inactive) | 57.4 µM (inactive) | > 100 µM (inactive) | > 100 µM (inactive) | 51.3 µM (inactive) |  |  |  | 
2 | CC1(C)N[PH]2(Nc3ccccc3O2)OC1=O | 22.8 µM (inactive) | > 100 µM (inactive) | 42.7 µM (inactive) | > 100 µM (inactive) | > 100 µM (inactive) | 66.5 µM (inactive) | > 100 µM (inactive) | > 100 µM (inactive) | 16.4 µM (inactive) | 19.2 µM (inactive) | 42.3 µM (inactive) | > 100 µM (inactive) | > 100 µM (inactive) | 66.2 µM (inactive) | 24.3 µM (inactive) | 32.7 µM (inactive) | 41.2 µM (inactive) | > 100 µM (inactive) | > 100 µM (inactive) | 
3 | CC(=O)N1CCN(CCCCN2c3ccccc3Sc3cc(N=[N+]=[N-])ccc32)CC1 | 14 µM (inactive) |  | 15.5 µM (inactive) | 14.5 µM (inactive) | 12.8 µM (inactive) | 17.4 µM (inactive) | 18.1 µM (inactive) | 13.8 µM (inactive) | 15.6 µM (inactive) | 16.7 µM (inactive) | 14.9 µM (inactive) | 13.7 µM (inactive) |  | 12.1 µM (inactive) |  | 16.1 µM (inactive) | 14.5 µM (inactive) | 13.8 µM (inactive) | 9.1 µM (inactive) | 9.06 µM (inactive)
4 | CCOC(=O)n1[nH]c(=O)n(-c2ccccc2)c1=O | > 100 µM (inactive) |  | > 100 µM (inactive) | > 100 µM (inactive) | > 100 µM (inactive) |  | > 100 µM (inactive) | > 100 µM (inactive) | > 100 µM (inactive) | > 100 µM (inactive) | > 100 µM (inactive) | > 100 µM (inactive) | > 100 µM (inactive) | > 100 µM (inactive) | > 100 µM (inactive) | > 100 µM (inactive) | > 100 µM (inactive) | > 100 µM (inactive) | > 100 µM (inactive) | > 100 µM (inactive)
5 | O=C(/C(=C\I)c1ccccc1)c1ccccc1 | 1.8 µM (inactive) | 16.5 µM (inactive) | 4.57 µM (inactive) | 3.94 µM (inactive) | 2.24 µM (inactive) | 15.2 µM (inactive) | 7.16 µM (inactive) | 3.94 µM (inactive) | 12.6 µM (inactive) |  | 13 µM (inactive) | 17.5 µM (inactive) | 17.1 µM (inactive) | 1.51 µM (inactive) | 17.3 µM (inactive) | 22.4 µM (inactive) | 14.5 µM (inactive) | 11.6 µM (inactive) | 5.35 µM (inactive) | 8.18 µM (inactive)
6 | O=C1c2cccc3cc([N+](=O)[O-])cc(c23)C(=O)N1CCCN1CCN(CCCNc2ccc3ncn4c5ccccc5c(=O)c2c34)CC1 | < 0.005 µM (active) | < 0.005 µM (active) | < 0.005 µM (active) | < 0.005 µM (active) | 0.0358 µM (active) | < 0.005 µM (active) | < 0.005 µM (active) | < 0.005 µM (active) | < 0.005 µM (active) | < 0.005 µM (active) | < 0.005 µM (active) | 0.00867 µM (active) | 0.0198 µM (active) | < 0.005 µM (active) |  | < 0.005 µM (active) | < 0.005 µM (active) | < 0.005 µM (active) | < 0.005 µM (active) | 
7 | O=C1CC[C@@]23CC(=O)O[C@@H]2CCCC3C1 (stereo partly specified) | > 100 µM (inactive) |  | > 100 µM (inactive) | > 100 µM (inactive) |  | > 100 µM (inactive) | > 100 µM (inactive) | > 100 µM (inactive) |  | > 100 µM (inactive) | > 100 µM (inactive) | > 100 µM (inactive) | > 100 µM (inactive) | > 100 µM (inactive) | > 100 µM (inactive) | > 100 µM (inactive) | > 100 µM (inactive) | > 100 µM (inactive) | 18.5 µM (inactive) | > 100 µM (inactive)
8 | COC(=O)c1ccc(Oc2nc3ccccc3nc2-c2cccs2)cc1 | 3.16 µM (inactive) |  | 46.8 µM (inactive) |  | > 100 µM (inactive) | 5.71 µM (inactive) | > 100 µM (inactive) | 21.3 µM (inactive) | > 100 µM (inactive) | > 100 µM (inactive) | 71.3 µM (inactive) | > 100 µM (inactive) | 35.5 µM (inactive) | 43.4 µM (inactive) | > 100 µM (inactive) | 26.1 µM (inactive) | > 100 µM (inactive) | 41.3 µM (inactive) | 4.79 µM (inactive) | 48.5 µM (inactive)
9 | CCCC(=O)OCC1OC(n2cc(F)c(=O)[nH]c2=O)C(F)C1O (stereo unspecified) | 0.456 µM (active) | 8.39 µM (inactive) | > 100 µM (inactive) | > 100 µM (inactive) | 31 µM (inactive) | 0.774 µM (active) | 5.5 µM (inactive) | 38.1 µM (inactive) | 61.5 µM (inactive) | 14.9 µM (inactive) | 10.9 µM (inactive) | > 100 µM (inactive) | > 74 µM (inactive) | > 10 µM (inactive) | > 40.4 µM (inactive) | 5.85 µM (inactive) | 2.24 µM (inactive) | > 22.4 µM (inactive) | > 100 µM (inactive) | 
10 | O=C1C(Cl)C2(CC(/C=C/c3ccccc3O)=NN2c2cccc(S(=O)(=O)O)c2)N1c1nc2ccccc2s1 (stereo unspecified) | 15.4 µM (inactive) | 20.9 µM (inactive) | 17.4 µM (inactive) | 14.5 µM (inactive) |  | 16.9 µM (inactive) |  | 22.5 µM (inactive) | 15.1 µM (inactive) | 18.6 µM (inactive) | 20.2 µM (inactive) | 22.3 µM (inactive) |  |  | 12.1 µM (inactive) | 23.7 µM (inactive) | 7.24 µM (inactive) | 15.4 µM (inactive) | 37.6 µM (inactive) | 15.3 µM (inactive)
11 | OC1(C(F)(F)F)OCCN=C1C(F)(F)F (stereo unspecified) | > 100 µM (inactive) | > 100 µM (inactive) | 56.2 µM (inactive) | > 100 µM (inactive) | 52 µM (inactive) |  | 41.1 µM (inactive) | > 100 µM (inactive) | > 100 µM (inactive) | > 100 µM (inactive) | > 100 µM (inactive) | > 100 µM (inactive) | > 100 µM (inactive) | 52.2 µM (inactive) | 56.2 µM (inactive) | > 100 µM (inactive) | 46.8 µM (inactive) | 51.5 µM (inactive) | > 100 µM (inactive) | 
12 | Cn1c2ccccc2n2c3ccccc3c(=S)c(C#N)c12 | > 100 µM (inactive) | > 100 µM (inactive) | > 100 µM (inactive) | > 100 µM (inactive) | > 100 µM (inactive) | > 100 µM (inactive) | > 100 µM (inactive) |  | > 100 µM (inactive) | > 100 µM (inactive) | > 100 µM (inactive) | > 100 µM (inactive) | > 100 µM (inactive) | > 100 µM (inactive) | > 100 µM (inactive) | > 100 µM (inactive) | > 100 µM (inactive) | > 100 µM (inactive) | > 100 µM (inactive) | > 100 µM (inactive)
13 | COC(=O)C(=O)C(C(=O)C(=O)Nc1ccccc1OC)c1nc2ccc([N+](=O)[O-])cc2nc1O (stereo unspecified) | > 100 µM (inactive) | > 100 µM (inactive) | > 100 µM (inactive) | > 100 µM (inactive) | > 100 µM (inactive) | > 100 µM (inactive) |  | > 100 µM (inactive) | 35.6 µM (inactive) | 32.7 µM (inactive) | > 100 µM (inactive) | > 100 µM (inactive) | > 100 µM (inactive) | > 100 µM (inactive) | > 100 µM (inactive) | > 100 µM (inactive) | > 100 µM (inactive) | > 100 µM (inactive) | > 100 µM (inactive) | > 100 µM (inactive)
14 | O=C(O)/C=C(/CC(=O)O)C(=O)O | 19.3 µM (inactive) | 16.3 µM (inactive) | 19 µM (inactive) | 30.8 µM (inactive) | 15.7 µM (inactive) | 12.3 µM (inactive) | 19.9 µM (inactive) | 21.3 µM (inactive) | 18.3 µM (inactive) | 22.1 µM (inactive) | 18.1 µM (inactive) | 38.4 µM (inactive) | 21.5 µM (inactive) | 20.6 µM (inactive) | 21 µM (inactive) | 18.6 µM (inactive) | 13.6 µM (inactive) | 18.2 µM (inactive) | 16 µM (inactive) | 
15 | CC(C)[C@@H](C(=O)N1CCC[C@H]1C(=O)OCc1ccccc1)N(C)C(=O)[C@H](C(C)C)N(C)C(=O)[C@H](Cc1ccccc1)N(C)C(=O)[C@H](NC(=O)OC(C)(C)C)C(C)C (Boc-[dV][NMeF][NMeV][NMeV]P-OBn) | > 50 µM (inactive) | > 50 µM (inactive) | > 50 µM (inactive) | > 50 µM (inactive) | > 50 µM (inactive) | > 50 µM (inactive) | > 50 µM (inactive) | > 50 µM (inactive) | > 50 µM (inactive) |  | > 50 µM (inactive) | > 50 µM (inactive) | > 50 µM (inactive) | > 50 µM (inactive) | > 50 µM (inactive) | > 50 µM (inactive) | > 50 µM (inactive) | > 50 µM (inactive) | > 50 µM (inactive) | 18.6 µM (inactive)
